“Also recorded” adds a separate entry of the source. Where a name gives a salt, the structure may show the parent alone.

B1: β-Casein: a 30 kDa protein containing 5 serine residues (protein, UniProt P02666 16-224, looked up)
Beta-casein: RELEELNVPGEIVESLSSSEESITRINKKIEKFQSEEQQQTEDELQDKIHPFAQTQSLVYPFPGPIPNSLPQNIPPLTQTPVVVPPFLQPEVMGVSKVKEAMAPKHKEMPFPKYPVEPFTESQSLTLTDVENLHLPLPLLQSWMHQPHQPLPPTVMFPPQSVLSLSQSKVLPVPQKAVPYPQRDMPIQAFLLYQEPVLGPVRGPFPIIV

For the first data set, the target named is T1, Acinetobacter baumannii rAcpA (Acinetobacter baumannii, UniProt A0ABX6CG12).
Experiment: not given
Format: biochemical. As to conditions: pH 6.
With CoCl2, the “PNPP hydrolysis as percent of that observed for NiCl2” value was 76%.

The same data set, now with this note: pH 6.0, divalent cation 2 mM final concentration.
Take `[Cl-].[Cl-].[Mg+2]` [MgCl2]: the “PNPP hydrolysis as percent of that observed for NiCl2” value is 85%. On the same count and under the same terms, in the case of `[Cl][Mn][Cl]` [MnCl2] it was 50%; in that of `[Cl][Ni][Cl]` [NiCl2], “Maximum hydrolysis”. Same read-out and setting: in the case of `[Cl-].[Cl-].[Zn+2]` [ZnCl2] it was 11%; in that of mercury, “very inhibitory”.

For another data set, the target named is T1, Acinetobacter baumannii rAcpA. In words: Hydrolysis of various phosphorylated compounds by rAcpA (released phosphate). It counts as biochemical. As to conditions: phosphate released relative to paranitrophenol released from PNPP x100; compound at 0.1 mM final concentration. As to the method: All incubations were carried out for 30 minutes at 37 °C after which time reactions were placed in an ice slurry for 3 minutes followed by addition of enzyme to the respective blanks and reactions were terminated by heating at 65 °C for 10 minutes followed by immersion in an ice slurry for 3 minutes. Released phosphate was determined by addition of 1.0 mL BIOMOL GREEN phosphate reagent (Enzo Life Sciences), and monitored at 620 nm using a Genesys 10 UV Scanning Spectrophotometer (Thermo Scientific). Paranitrophenol was monitored at 405 nm following addition of 1.7 mL 0.5 M Glycine buffer, pH 10. Following subtraction of blank values, paranitrophenol and released phosphate were quantitated using paranitrophenol and phosphate standard curves, respectively. […] Specific activity is expressed as nmoles paranitrophenol or free phosphate liberated mg^-1s^-1.
Turning to K-R-pT-I-R-R [Threonine Phosphopeptide], the “Relative Activity” value is on record as 0.0%.

Regarding R-R-A-pS-V-A [Serine Phosphopeptide], the “Relative Activity” value is 0.0%. On the same count and under the same terms, under “T-S-T-E-P-Q-pY-Q-P-G-E-N-L [Tyrosine Phosphopeptide]” stands 20.0%; under B1, 1.2%.

Still in this data set, the particulars now being: phosphate released relative to paranitrophenol released from PNPP x100; compound at 0.1 mM final concentration; listed as serine phosphopeptide.
As to R-R-A-pS-V-A [Serine Phosphopeptide], the “Relative Activity” value is 0%.

The data set is the same for the next values; noted with them: phosphate released relative to paranitrophenol released from PNPP x100; compound at 0.1 mM final concentration; listed as threonine phosphopeptide.
Regarding K-R-pT-I-R-R [Threonine Phosphopeptide], the “Relative Activity” value is given as 0%.

The same data set, now with this note: phosphate released relative to paranitrophenol released from PNPP x100; compound at 0.1 mM final concentration; listed as tyrosine phosphopeptide.
As to “T-S-T-E-P-Q-pY-Q-P-G-E-N-L [Tyrosine Phosphopeptide]”, the “Relative Activity” value is 20%.

The data set is the same for the next values; noted with them: phosphate released relative to paranitrophenol released from PNPP x100; compound at 2.0 mM final concentration.
For the molecule `Nc1ncnc2c1ncn2[C@@H]1O[C@H](CO)[C@@H](OP(=O)(O)O)[C@H]1O` [3’-AMP], the “Relative Activity” value amounted to 63.0%. Consider `Nc1ncnc2c1ncn2[C@@H]1O[C@H](COP(=O)(O)OP(=O)(O)O)[C@@H](O)[C@H]1O` [ADP], for which the “Relative Activity” value is given as 1.9%. The same measure, in the same setting: under `Nc1ncnc2c1ncn2[C@@H]1O[C@H](COP(=O)(O)O)[C@@H](O)[C@H]1O` [AMP] stands 27.0%; under `Nc1ncnc2c1ncn2[C@@H]1O[C@H](COP(=O)(O)OP(=O)(O)OP(=O)(O)O)[C@@H](O)[C@H]1O` [ATP], 1.1%; under `Nc1ccn([C@@H]2O[C@H](COP(=O)(O)O)[C@@H](O)[C@H]2O)c(=O)n1` [CMP], 4.1%. Same read-out and setting: under `O=C(COP(=O)(O)O)[C@@H](O)[C@H](O)[C@H](O)COP(=O)(O)O` [Fructose-1,6-bisphosphate] stands 6.6%.

Take `Nc1nc2c(ncn2[C@@H]2O[C@H](COP(=O)(O)OP(=O)(O)O)[C@@H](O)[C@H]2O)c(=O)[nH]1` [GDP]: the “Relative Activity” value was 1.0%.

For `O=P(O)(O)O[C@H]1O[C@H](CO)[C@H](O)[C@H](O)[C@H]1O` [Galactose-1-Phosphate], the “Relative Activity” value turned out to be 0.0%. The same measure, in the same setting: in the case of `O=C[C@H](O)[C@@H](O)[C@H](O)[C@H](O)COP(=O)(O)O` [Glucose-6-Phosphate] it was 2.7%; in that of `O=c1[nH]cnc2c1ncn2[C@@H]1O[C@H](COP(=O)(O)OP(=O)(O)O)[C@@H](O)[C@H]1O` [IDP], 0.5%.

As for `O=C[C@@H](O)[C@@H](O)[C@H](O)[C@H](O)COP(=O)(O)O` [Mannose-6-Phosphate], the “Relative Activity” value was 10.6%. Turning to `NC(=O)C1=CN([C@@H]2O[C@H](COP(=O)(O)OP(=O)(O)OC[C@H]3O[C@@H](n4cnc5c(N)ncnc54)[C@H](OP(=O)(O)O)[C@@H]3O)[C@@H](O)[C@H]2O)C=CC1` [NADPH], the “Relative Activity” value amounted to 3.5%. Same read-out and setting: in the case of `NC(=O)c1ccc[n+]([C@@H]2O[C@H](COP(=O)([O-])OP(=O)(O)OC[C@H]3O[C@@H](n4cnc5c(N)ncnc54)[C@H](OP(=O)(O)O)[C@@H]3O)[C@@H](O)[C@H]2O)c1` [NADP^+] it was 3.7%; in that of `C=C(OP(=O)(O)O)C(=O)O` [PEP], 7.6%. Same read-out and setting: in the case of `N[C@@H](COP(=O)(O)O)C(=O)O` [Phospho-L-Serine] it was 0.4%. The same measure, in the same setting: under `C[C@@H](OP(=O)(O)O)[C@H](N)C(=O)O` [Phospho-L-Threonine] stands 4.5%.

Take `N[C@@H](Cc1ccc(OP(=O)(O)O)cc1)C(=O)O` [Phospho-L-Tyrosine]: the “Relative Activity” value stood at 31.5%. On the same count and under the same terms, under `C[N+](C)(C)CCOP(=O)(O)O` [Phosphocholine] stands 2.0%; under `NCCOP(=O)(O)O` [Phosphoethanolamine], 1.8%. Same read-out and setting: under `O=P(O)(O)O[C@H]1[C@H](OP(=O)(O)O)[C@@H](OP(=O)(O)O)[C@H](OP(=O)(O)O)[C@@H](OP(=O)(O)O)[C@H]1OP(=O)(O)O` [Phytic acid] stands 0.0%; under `Cc1ncc(COP(=O)(O)O)c(C=O)c1O` [Pyridoxal Phosphate], 35.3%. Same read-out and setting: in the case of `O=C[C@H](O)[C@H](O)[C@H](O)COP(=O)(O)O` [Ribose-5-Phosphate] it was 20.0%; in that of `Cc1cn([C@H]2C[C@H](O)[C@@H](COP(=O)(O)OP(=O)(O)O)O2)c(=O)[nH]c1=O` [TDP], 3.0%. Take `Cc1cn([C@H]2C[C@H](O)[C@@H](COP(=O)(O)O)O2)c(=O)[nH]c1=O` [TMP]: the “Relative Activity” value was 27.3%. Same read-out and setting: in the case of `Cc1ncc(C[n+]2csc(CCOP(=O)(O)O)c2C)c(N)n1` [Thiamine Monophosphate] it was 12.3%. Still for that read-out and setting: in the case of `Cc1ncc(C[n+]2csc(CCO[P@](=O)(O)OP(=O)(O)O)c2C)c(N)n1` [Thiamine Pyrophosphate] it was 3.6%. `O=P(O)(O)OC[C@H]1O[C@H](O[C@H]2O[C@H](CO)[C@@H](O)[C@H](O)[C@H]2O)[C@H](O)[C@@H](O)[C@@H]1O` [Trehalose-6-Phosphate]: the “Relative Activity” value is 4.0%.

For the molecule `O=c1ccn([C@@H]2O[C@H](COP(=O)(O)OP(=O)(O)O)[C@@H](O)[C@H]2O)c(=O)[nH]1` [UDP], the “Relative Activity” value is reported as 1.8%.

`O=c1ccn([C@@H]2O[C@H](COP(=O)(O)O)[C@@H](O)[C@H]2O)c(=O)[nH]1` [UMP]: the “Relative Activity” value stood at 8.7%. With `O=P(O)(O)OC(CO)CO` [β-Glycerol Phosphate], the “Relative Activity” value is 40.0%.

Staying with this data set, now noted: phosphate released relative to paranitrophenol released from PNPP x100; compound at 2.0 mM final concentration; listed as galactose-1-phosphate.
For the molecule `O=P(O)(O)O[C@H]1O[C@H](CO)[C@H](O)[C@H](O)[C@H]1O` [Galactose-1-Phosphate], the “Relative Activity” value is listed as “not hydrolyzed”.

The data set is the same for the next values; noted with them: phosphate released relative to paranitrophenol released from PNPP x100; compound at 2.0 mM final concentration; listed as phytic acid.
With `O=P(O)(O)O[C@H]1[C@H](OP(=O)(O)O)[C@@H](OP(=O)(O)O)[C@H](OP(=O)(O)O)[C@@H](OP(=O)(O)O)[C@H]1OP(=O)(O)O` [Phytic acid], the “Relative Activity” value was “not hydrolyzed”.

Another data set has the same target. In words: biochemical. Format: biochemical.
Details: not given
The term IC50 denotes the concentration needed to halve the response being measured. Molecule `O[C@@H](CS)[C@@H](O)CS` [Dithiothreitol] returned an IC50 of 3000 µM. As to `C=C1[C@@H](O)[C@@H]2O[C@]3(CC[C@H](/C=C/[C@@H](C)[C@@H]4CC(C)=C[C@@]5(O[C@H](C[C@@](C)(O)C(=O)O)CC[C@H]5O)O4)O3)CC[C@H]2O[C@@H]1[C@@H](O)C[C@H](C)[C@H]1O[C@@]2(CCCCO2)CC[C@H]1C` [Okadaic acid], the “Percent Control” value amounted to 100% and the “sensitivity of rAcpA to compound” value is on record as “insensitive; also recorded: did not inhibit”. Molecule `O=P(O)(O)OP(=O)(O)O` [Sodium Pyrophosphate] had an IC50 of 2500 µM.

As for `O=C(O)C(O)C(O)C(=O)O` (centres unmarked) [Sodium Tartrate], the IC50 worked out at 2000 µM. With Triton X100, the “concentration inhibiting 50%” value is given as 0.32 % v/v.

For Tween 20, the “Percent Control” value was 140% and the “stimulation of PNPP hydrolysis” value is on record as ~ 1.4 fold.

Still in this data set, the particulars now being: pH 6; read-out: IC50.
As for `O[C@H](CS)[C@@H](O)CS` [Dithioerythritol], the IC50 came out at 2000 µM. On to `O=C(O)CN(CCN(CC(=O)O)CC(=O)O)CC(=O)O` [EDTA], for which the IC50 was found to be 1250 µM.

For the molecule `[O]=[Mo](=[O])([OH])[OH]` [Molybdate], the IC50 amounted to 350 µM. Same read-out and setting: in the case of `CCCCCCCCCCCCOS(=O)(=O)[O-].[Na+]` [Sodium Dodecyl Sulfate] it was 100 µM; in that of `[F-].[Na+]` [Sodium Fluoride], 6000 µM. Still for that read-out and setting: in the case of `O=P(O)(O)O` [Sodium Phosphate] it was 9000 µM; in that of `[Na+].[Na+].[Na+].[O]=[V]([O-])([O-])[O-]` [Vanadate, sodium orthovanadate], 125 µM; in that of `OCCS` [β-Mercaptoethanol], 10000 µM. The same measure, in the same setting: under Triton X100 stands 5100 µM.

Still in this data set, the particulars now being: read-out: IC50.
For `[O]=[Mo](=[O])([OH])[OH]` [Molybdate], the IC50 was 350 µM. The same measure, in the same setting: in the case of `CCCCCCCCCCCCOS(=O)(=O)[O-].[Na+]` [Sodium Dodecyl Sulfate] it was 100 µM. For `[Na+].[Na+].[Na+].[O]=[V]([O-])([O-])[O-]` [Vanadate, sodium orthovanadate], the IC50 was 125 µM.

The record behind these values is paper PMC8172068 (PLoS ONE, 2021).
